Legend:
MOLM-13 = assay: Cytotoxicity against human MOLM-13 cells assessed as reduction of cell viability incubated for 3 days by CellTiter-Glo assay; type: functional, cell-based; details: MOLM-13, 72 h; for CC50: time 3 day
[1] = Toxicity in CHO cells assessed as chromosomal aberration; type: cell-based, Cricetulus griseus; details: chinese hamster
[2] = Oral bioavailability in Beagle dog at 3 mg/kg by LC-MS/MS analysis; type: ADME, organism-based, Canis lupus familiaris; details: in vivo
[3] = Oral bioavailability in Sprague-Dawley rat at 3 mg/kg by LC-MS/MS analysis; type: ADME, organism-based; details: in vivo
[4] = target: Voltage-gated inwardly rectifying potassium channel KCNH2 (Homo sapiens, UniProt Q12809); assay: Inhibition of hERG (unknown origin); type: toxicity
Chain of Voltage-gated inwardly rectifying potassium channel KCNH2 (Q12809 whole entry): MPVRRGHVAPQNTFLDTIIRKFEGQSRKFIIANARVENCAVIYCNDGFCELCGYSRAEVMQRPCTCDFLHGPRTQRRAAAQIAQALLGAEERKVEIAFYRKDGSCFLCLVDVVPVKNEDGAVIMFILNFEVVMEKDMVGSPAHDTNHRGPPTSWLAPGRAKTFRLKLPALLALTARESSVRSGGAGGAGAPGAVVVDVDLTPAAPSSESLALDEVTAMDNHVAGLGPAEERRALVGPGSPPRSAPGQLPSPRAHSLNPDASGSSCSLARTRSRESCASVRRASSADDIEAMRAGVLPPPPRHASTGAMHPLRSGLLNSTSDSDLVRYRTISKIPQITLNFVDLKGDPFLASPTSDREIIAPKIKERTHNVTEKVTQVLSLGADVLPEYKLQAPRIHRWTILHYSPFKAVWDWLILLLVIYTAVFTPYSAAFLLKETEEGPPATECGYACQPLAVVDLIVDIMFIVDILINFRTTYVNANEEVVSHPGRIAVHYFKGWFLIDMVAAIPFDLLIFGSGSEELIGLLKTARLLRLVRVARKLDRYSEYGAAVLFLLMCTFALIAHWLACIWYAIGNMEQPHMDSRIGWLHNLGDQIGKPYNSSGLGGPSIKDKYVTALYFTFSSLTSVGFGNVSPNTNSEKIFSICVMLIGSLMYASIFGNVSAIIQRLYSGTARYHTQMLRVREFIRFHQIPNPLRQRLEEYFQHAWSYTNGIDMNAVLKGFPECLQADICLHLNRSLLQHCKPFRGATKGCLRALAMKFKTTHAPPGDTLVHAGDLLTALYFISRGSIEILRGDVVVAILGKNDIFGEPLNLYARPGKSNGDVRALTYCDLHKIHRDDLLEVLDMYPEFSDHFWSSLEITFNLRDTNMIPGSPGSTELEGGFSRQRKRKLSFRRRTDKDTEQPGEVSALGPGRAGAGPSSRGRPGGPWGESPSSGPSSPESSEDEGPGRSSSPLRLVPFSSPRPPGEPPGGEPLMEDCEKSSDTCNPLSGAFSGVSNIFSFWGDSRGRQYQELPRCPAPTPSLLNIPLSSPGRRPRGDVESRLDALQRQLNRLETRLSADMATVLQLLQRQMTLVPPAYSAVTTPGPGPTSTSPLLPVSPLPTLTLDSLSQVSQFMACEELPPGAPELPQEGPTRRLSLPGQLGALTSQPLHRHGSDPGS

[5] = Genotoxicity in Salmonella typhimurium by Ames test; type: toxicity; details: salmonella enterica subsp. enterica serovar typhimurium
[6] = Toxicity in po dosed rat bone marrow by micronucleus assay; type: organism-based; details: in vivo
[7] = target: Dihydroorotate dehydrogenase (quinone), mitochondrial (Homo sapiens, UniProt Q02127); assay: Inhibition of DHODH in human HeLa cells assessed as reduction in hypoxia-induced VEGF expression incubated for 48 hrs by ELISA assay; type: cell-based
Chain of Dihydroorotate dehydrogenase (quinone), mitochondrial (Q02127 whole entry): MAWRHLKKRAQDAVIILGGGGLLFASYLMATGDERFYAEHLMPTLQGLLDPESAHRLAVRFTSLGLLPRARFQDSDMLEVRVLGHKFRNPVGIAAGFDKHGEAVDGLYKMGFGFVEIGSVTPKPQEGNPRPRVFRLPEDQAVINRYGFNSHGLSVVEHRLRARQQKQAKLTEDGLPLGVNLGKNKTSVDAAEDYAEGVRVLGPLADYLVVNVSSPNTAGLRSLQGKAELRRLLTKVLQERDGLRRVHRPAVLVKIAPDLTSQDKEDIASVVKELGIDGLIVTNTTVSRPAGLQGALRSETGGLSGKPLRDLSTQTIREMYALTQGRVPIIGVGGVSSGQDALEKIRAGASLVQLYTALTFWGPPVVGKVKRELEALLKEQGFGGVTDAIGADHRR

[8] = Metabolic stability in mouse liver microsomes assessed as intrinsic clearance at 1 uM incubated upto 60 mins in presence of NADP by LC-MS analysis; type: ADME, Microsome; details: read-out: CLH
[9] = AUC([…]) in mouse at 10 mg/kg, po administered via gavage measured upto 24 hrs by LC/MS-MS analysis; type: ADME, organism-based; set-up: dose 10 mg/kg, time < 24 hrs, route po; details: in vivo
HT-1080 [10] = assay: Antitumor activity against human HT-1080 cells xenografted in mouse assessed as tumor growth inhibition at 50 mg/kg, po bid measured for 14 days relative to control; type: functional; details: HT-1080, 336 h, time 14 day, read-out: TGI
HT-1080 [11] = assay: Antitumor activity against human HT-1080 cells xenografted in mouse assessed as tumor growth inhibition at 10 mg/kg, po bid measured for 14 days relative to control; type: functional; details: HT-1080, 336 h, time 14 day, read-out: TGI
HT-1080 [12] = assay: Antitumor activity against human HT-1080 cells xenografted in mouse assessed as tumor growth inhibition at 10 mg/kg, po bid measured for 21 days relative to control; type: functional; details: HT-1080, 504 h, time 21 day, read-out: TGI
HT-1080 [13] = assay: Antitumor activity against human HT-1080 cells xenografted in mouse assessed as tumor growth inhibition at 2 mg/kg, po bid measured for 21 days relative to control; type: functional; details: HT-1080, 504 h, time 21 day, read-out: TGI

| SMILES | CC50 (MOLM-13) [nM] | other results |
| --- | --- | --- |
| COc1ccc(C2c3[nH]c4ccc(Cl)cc4c3CCN2C(=O)Oc2ccc(F)cc2)cc1 (stereo not given) | 26 | – |
| CCOC(=O)N1CCc2c([nH]c3ccc(Cl)cc23)C1Cc1ccccc1 (stereo not given) | > 1000 | – |
| COc1ccc(C2c3[nH]c4ccc(Cl)cc4c3CCN2C(=O)Oc2ccccc2F)cc1 (stereo not given) | 59 | – |
| CCOC(=O)N1CCc2c([nH]c3ccc(Cl)cc23)C1c1cccc(OC)c1 (stereo not given) | 48 | – |
| CCOC(=O)N1CCc2c([nH]c3cccc(F)c23)C1c1ccc(OC)cc1 (stereo not given) | > 1000 | – |
| COc1ccc([C@H]2c3[nH]c4ccc(Cl)cc4c3CCN2C(=O)Oc2ccc(Cl)cc2)cc1 [EMVODODSTAT] | 6 | Activity [1]: Non-Toxic; bioavailability [2]: 8%; bioavailability [3]: 119%; inhibition (INH) [4]: Not Active; Activity [5]: Non-Toxic; Activity [6]: Non-Toxic |
| COc1ccc([C@@H]2c3[nH]c4ccc(Cl)cc4c3CCN2C(=O)Oc2ccc(Cl)cc2)cc1 | > 1000 | – |
| COc1ccc(C2c3[nH]c4cc(Cl)ccc4c3CCN2C(=O)Oc2ccc(Cl)cc2)cc1 (stereo not given) | 306 | – |
| CCN1CCc2c([nH]c3ccc(Cl)cc23)C1c1ccc(OC)cc1 (stereo not given) | 278 | – |
| CCOC(=O)N1CCc2c([nH]c3ccc(Br)cc23)C1c1ccc(OC)cc1 (stereo not given) | 11 | – |
| CCOC(=O)N1CCc2c([nH]c3ccccc23)C1c1ccc(OC)cc1 (stereo not given) | > 1000 | – |
| CCNC(=S)N1CCc2c([nH]c3ccc(Cl)cc23)C1c1ccc(OC)cc1 (stereo not given) | 477 | – |
| COc1ccc(C2c3[nH]c4ccc(Cl)cc4c3CCN2C(C)=O)cc1 (stereo not given) | 274 | – |
| CCOC(=O)N1CCc2c([nH]c3ccc(F)cc23)C1c1ccc(OC)cc1 (stereo not given) | 433 | – |
| CCN(CC)C(=O)N1CCc2c([nH]c3ccc(Cl)cc23)C1c1ccc(OC)cc1 (stereo not given) | > 1000 | – |
| Brc1ccc2[nH]c3c(c2c1)CCCC3n1cccc1 (stereo not given) | – | EC50 [7]: 13 nM |
| CCOC(=O)N1CCc2c([nH]c3c(F)cccc23)C1c1ccc(OC)cc1 (stereo not given) | > 1000 | – |
| CCOC(=O)N1CCc2c([nH]c3ccc(Cl)cc23)C1c1ccccc1 (stereo not given) | 52 | CLint scaled at 1 µM [8]: 92 mL/min/kg |
| COc1ccc(C2c3[nH]c4ccc(Cl)cc4c3CCN2C(=O)OCCF)cc1 (stereo not given) | 37 | CLint scaled at 1 µM [8]: 227 mL/min/kg |
| CCOC(=O)N1CCc2c([nH]c3ccc(OC)cc23)C1c1ccc(OC)cc1 (stereo not given) | 215 | – |
| COc1ccc(C2c3[nH]c4ccc(Cl)cc4c3CCN2C(=O)Oc2ccccc2)cc1 (stereo not given) | 34 | CLint scaled at 1 µM [8]: 22 mL/min/kg |
| COc1ccc(C2c3[nH]c4ccc(Cl)cc4c3CCN2c2ccccc2)cc1 (stereo not given) | 133 | – |
| COc1ccc(OC(=O)N2CCc3c([nH]c4ccc(Cl)cc34)C2c2ccc(OC)cc2)cc1 (stereo not given) | 73 | – |

| SMILES | CC50 (MOLM-13) [nM] | other results |
| --- | --- | --- |
| CCOC(=O)N1CCc2c([nH]c3ccc(Cl)cc23)C1C1CCCCC1 (stereo not given) | 119 | – |
| COc1ccc([C@H]2c3[nH]c4ccc(Br)cc4c3C[C@@H]3C(=O)N(C4CCCCC4)C(=S)N23)cc1 | – | EC50 [7]: 3 nM |
| COc1ccc(C2NCCc3c2[nH]c2ccc(Br)cc32)cc1 (stereo not given) | 920 | – |
| CCOC(=O)N1CCc2c([nH]c3ccc(Cl)cc23)C1c1cccc(Cl)c1 (stereo not given) | 34 | CLint scaled at 1 µM [8]: 143 mL/min/kg |
| O=C(Oc1ccc(Cl)cc1)N1CCn2c(cc3ccc(Cl)cc32)C1c1ccccc1 (stereo not given) | – | EC50 (MOLM-13): > 1000 nM |
| CCOC(=O)N1CCc2c([nH]c3cc(F)ccc23)C1c1ccc(OC)cc1 (stereo not given) | > 1000 | – |
| CCNC(=O)N1CCc2c([nH]c3ccc(Cl)cc23)C1c1ccc(OC)cc1 (stereo not given) | 929 | – |
| CCOC(=O)N1CCc2c([nH]c3c(C)cccc23)C1c1ccc(OC)cc1 (stereo not given) | > 1000 | – |
| CCOC(=O)N1CCc2c([nH]c3ccc(Cl)cc23)C1c1ccc(OC)cc1 (stereo not given) | 25 | CLint scaled at 1 µM [8]: 190 mL/min/kg; AUC(0-t) at 24 h [9]: 580 ng·h/mL; inhibition in vivo at 50 mg/kg (HT-1080 [10]): 52%; inhibition in vivo at 10 mg/kg (HT-1080 [11]): 2% |
| COc1ccc(C2NCCc3c2[nH]c2ccccc32)cc1 (stereo not given) | > 30000 | – |
| COc1ccc([C@H]2c3[nH]c4ccc(Cl)cc4c3C[C@@H]3C(=O)N(C4CCCCC4)C(=S)N23)cc1 | – | EC50 [7]: 1 nM |
| COc1ccc(C2NCCc3c2[nH]c2ccc(Cl)cc32)cc1 (stereo not given) | 1200 | – |
| COc1ccc(C2c3[nH]c4ccc(Cl)cc4c3CCN2C(=O)Oc2ccccc2Cl)cc1 (stereo not given) | 126 | – |
| COc1ccc(C2c3[nH]c4ccc(Cl)cc4c3CCN2C(=O)Oc2ccccc2C)cc1 (stereo not given) | 225 | – |
| COc1ccc(C2c3[nH]c4ccc(Cl)cc4c3CCN2C(=O)Oc2ccc(C)cc2)cc1 (stereo not given) | 31 | CLint scaled at 1 µM [8]: < 5 mL/min/kg; AUC(0-t) at 24 h [9]: 2200 ng·h/mL |
| COc1ccc(C2c3[nH]c4ccc(Cl)cc4c3CCN2C(=O)OC2CC2)cc1 (stereo not given) | 37 | – |
| COCCOC(=O)N1CCc2c([nH]c3ccc(Cl)cc23)C1c1ccc(OC)cc1 (stereo not given) | 81 | CLint scaled at 1 µM [8]: 365 mL/min/kg |
| COc1ccc(C2c3[nH]c4ccc(Cl)cc4c3CCN2C(=O)Oc2cccnc2)cc1 (stereo not given) | 117 | – |
| CCOC(=O)N1CCc2c([nH]c3ccc(Cl)cc23)C1c1ccc(Cl)cc1 (stereo not given) | 19 | CLint scaled at 1 µM [8]: 221 mL/min/kg; AUC(0-t) at 24 h [9]: 550 ng·h/mL |
| COc1ccc(C2c3c(c4cc(Cl)ccc4n3C)CCN2C(=O)Oc2ccc(Cl)cc2)cc1 (stereo not given) | – | EC50 (MOLM-13): > 1000 nM |
| COc1ccc(C2c3[nH]c4ccc(Cl)cc4c3CCN2C(=O)OC(C)(C)C)cc1 (stereo not given) | 39 | – |
| COc1ccc(C2c3[nH]c4ccc(Cl)cc4c3CCN2S(=O)(=O)c2ccccc2)cc1 (stereo not given) | > 1000 | – |
| CCCOC(=O)N1CCc2c([nH]c3ccc(Cl)cc23)C1c1ccc(OC)cc1 (stereo not given) | 23 | – |

| SMILES | CC50 (MOLM-13) [nM] | other results |
| --- | --- | --- |
| COc1ccc(C2c3[nH]c4ccc(Cl)cc4c3CCN2Cc2ccccc2)cc1 (stereo not given) | 265 | – |
| COc1ccc(C2c3[nH]c4ccc(Cl)cc4c3CCN2C(=O)Oc2cccc(Cl)c2)cc1 (stereo not given) | 13 | – |
| COc1ccc(C2c3[nH]c4ccc(Cl)cc4c3CCN2C(=O)Oc2cncnc2)cc1 (stereo not given) | 74 | – |
| CCOC(=O)N1CCc2c([nH]c3ccc(Cl)cc23)C1C (stereo not given) | > 1000 | – |
| COc1ccc(C2c3[nH]c4ccc(Cl)cc4c3CCN2C=O)cc1 (stereo not given) | 325 | – |
| COc1ccc(C2c3[nH]c4ccc(Cl)cc4c3CCN2C(=O)OC2CCC2)cc1 (stereo not given) | 28 | – |
| CCOC(=O)N1CCc2c([nH]c3ccc(Cl)cc23)C1c1ccccc1OC (stereo not given) | 192 | – |
| COc1ccc(C2c3[nH]c4cccc(Cl)c4c3CCN2C(=O)Oc2ccc(Cl)cc2)cc1 (stereo not given) | 389 | – |
| COC(=O)N1CCc2c([nH]c3ccc(Cl)cc23)C1c1ccc(OC)cc1 (stereo not given) | 40 | CLint scaled at 1 µM [8]: 174 mL/min/kg |
| COc1ccc(C2c3[nH]c4ccc(Cl)cc4c3CCN2C(=O)Oc2cccc(F)c2)cc1 (stereo not given) | 27 | – |
| COc1ccc(C2c3[nH]c4ccc(C)cc4c3CCN2C(=O)Oc2ccc(Cl)cc2)cc1 (stereo not given) | 62 | – |
| CCOC(=O)N1CCc2c([nH]c3ccc(Cl)cc23)C1c1cccc(F)c1 (stereo not given) | 53 | CLint scaled at 1 µM [8]: 151 mL/min/kg |
| COc1ccc(C2c3[nH]c4ccc(Cl)cc4c3CCN2C)cc1 (stereo not given) | 337 | – |
| COc1ccc(C2c3[nH]c4ccc(Cl)cc4c3CCN2C(=O)Oc2ccc(Cl)cc2)cc1 (stereo not given) | 12 | CLint scaled at 1 µM [8]: < 5 mL/min/kg; AUC(0-t) at 24 h [9]: 8600 ng·h/mL; inhibition in vivo at 10 mg/kg (HT-1080 [12]): 82%; inhibition in vivo at 2 mg/kg (HT-1080 [13]): 63% |
| COc1ccc(C2c3[nH]c4ccc(Cl)cc4c3CCN2C(=O)OC2CCCC2)cc1 (stereo not given) | 36 | – |
| COc1ccc(C2c3[nH]c4ccc(Cl)cc4c3CCN2C(=O)OC(C)C)cc1 (stereo not given) | 37 | – |
| COc1ccc(C2c3[nH]c4ccc(Cl)cc4c3CCN2C(=O)OC2CCCCC2)cc1 (stereo not given) | 41 | – |
| CCOC(=O)N1CCc2c([nH]c3ccc(Cl)cc23)C1c1ccccc1Cl (stereo not given) | 384 | – |
| COc1ccc([C@H]2c3[nH]c4ccccc4c3C[C@@H]3C(=O)N(C4CCCCC4)C(=S)N23)cc1 | – | EC50 [7]: 680 nM |
| CCOC(=O)N1CCc2c([nH]c3ccc(Cl)cc23)C1c1ccc(F)cc1 (stereo not given) | 36 | AUC(0-t) at 24 h [9]: 200 ng·h/mL |
| CCOC(=O)N1CCc2c([nH]c3ccc(Cl)cc23)C1c1ccccc1F (stereo not given) | 36 | – |
| CCOC(=O)N1CCc2c([nH]c3ccc(C#N)cc23)C1c1ccc(OC)cc1 (stereo not given) | 284 | – |
| COc1ccc(C2c3[nH]c4ccc(Cl)cc4c3CCN2C(=O)Oc2cccc(C)c2)cc1 (stereo not given) | 77 | – |

Reference: ChEMBL document CHEMBL5247596, “SAR studies toward discovery of emvododstat (PTC299), a potent dihydroorotate dehydrogenase (DHODH) inhibitor” (Eur J Med Chem, 2022)
